Biological target: prolyl endopeptidase (Elizabethkingia meningoseptica, UniProt P27028)
Test: Measurement of anti-prolyl endopeptidase activity (Z-glycyl-proline-β-naphthylamide substrate)
Type: biochemical
Conditions: amount for 50% inhibition, pH 7.0, 35° C., 10 minutes, absorbance at 410 nm
Description: The method of Yoshimoto and Tsuru [T. Yoshimoto and D. Tsuru, Agric. Biol. Chem., 42, 2417 (1978)] was used to measured the anti-prolyl endopeptidase activities of several compounds of the present invention. A mixture of 0.0025M Z-glycyl-proline-β-naphthylamide (0.25 ml), 0.1M phosphate buffer (pH, 7.0; 0.99 ml) and a solution of a particular anti-prolyl endopeptidase compound (0.01 ml) was incubated in a test tube at 37° C. for 3 minutes. Thereafter, 0.1 ml of a solution of prolyl endopeptidase (0.2 U/ml) was added and the mixture was incubated at 35° C. for 10 minutes. After the reaction, 2.0 ml of Triton X-100 in 1M acetate buffer (pH, 4.0) was added to the reaction mixture so that the final concentration of the surfactant was 10%. The mixture was left at room temperature for 15 minutes and the absorbance (a) at 410 nm was measured.
A sample of a blind test was prepared by using the buffer instead of the anti-prolyl endopeptidase compound and its absorbance (b) was also measured. The percent inhibition of prolyl endopeptidase was calculated by the formula: […]
and the amount of a specific compound needed to achieve 50% inhibition (IC50) was determined.

Sequence of prolyl endopeptidase (P27028 21-705): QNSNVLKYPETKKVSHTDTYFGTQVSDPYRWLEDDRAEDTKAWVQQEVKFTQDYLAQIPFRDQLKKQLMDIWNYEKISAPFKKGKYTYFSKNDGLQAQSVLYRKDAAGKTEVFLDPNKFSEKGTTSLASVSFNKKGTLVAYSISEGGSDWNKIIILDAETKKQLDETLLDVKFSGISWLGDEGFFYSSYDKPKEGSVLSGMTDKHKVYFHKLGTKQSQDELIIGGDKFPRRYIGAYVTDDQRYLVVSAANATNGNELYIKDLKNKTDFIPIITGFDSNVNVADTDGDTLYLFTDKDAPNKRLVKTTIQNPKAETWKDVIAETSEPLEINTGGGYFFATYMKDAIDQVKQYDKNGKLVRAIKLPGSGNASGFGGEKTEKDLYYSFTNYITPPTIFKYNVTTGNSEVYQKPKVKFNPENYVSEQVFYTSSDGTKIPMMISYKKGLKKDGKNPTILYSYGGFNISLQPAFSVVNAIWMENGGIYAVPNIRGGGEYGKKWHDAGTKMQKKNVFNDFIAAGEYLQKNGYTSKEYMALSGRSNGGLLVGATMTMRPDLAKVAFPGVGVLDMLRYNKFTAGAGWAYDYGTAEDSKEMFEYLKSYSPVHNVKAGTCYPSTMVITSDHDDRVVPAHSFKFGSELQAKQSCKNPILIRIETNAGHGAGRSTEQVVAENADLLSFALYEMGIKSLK

Row | IC50 [μg/test tube] | SMILES
1 | 4.0 | CCCCCCC(OC(=O)CCCc1ccccc1)C(=O)N1CCCC1 (stereo not drawn) [Example 3, N-[2-(γ-phenyl)butyryloxy-n-capryloyl]pyrrolidine]
2 | 0.90 | CC(C)C(OC(=O)CCCc1ccccc1)C(=O)N1CCCC1 (stereo not drawn) [Example 2, N-[2-(γ-phenyl)butyryloxy-3-methylbutyryl]pyrrolidine]
3 | 0.70 | CC(C)CC(OC(=O)CCCc1ccccc1)C(=O)N1CCCC1 (stereo not drawn) [Example 1, N-[2-(γ-phenyl)butyryloxy-4-methylvaleryl]pyrrolidine]
